What was measured:
[1] = test system: ocrelizumab disulfide bond reduction in HCCF; experiment: Lab scale HCCF hold time study: percentage of intact antibody in protein A elution pools; format: biochemical, CHO; conditions: for intact (150 kDa) antibody remaining in protein A elution pools: FIG. 19 legend, HCCF hold
G6PD = G6PD (Homo sapiens, UniProt P11413); conditions: cited from earlier work
[2] = test system: hexokinase, glucose-6-phosphate dehydrogenase, thioredoxin, thioredoxin reductase; experiment: Reconstructed enzymatic reduction system, Bioanalyzer assay; conditions: inhibitor 0.1 mM
[3] = test system: ocrelizumab reduction in HCCF (Trx system, G6PD, hexokinase); experiment: HCCF incubation experiment in mini-tanks, Bioanalyzer assay
[4] = test system: antibody disulfide bond reduction in CCF/HCCF; experiment: Minimum effective inhibitor concentration to prevent antibody disulfide reduction in the CHO production process; format: biochemical; conditions: for minimum effective inhibitory concentration as multiple of antibody concentration: usual
[5] = target: T1, thioredoxin system (Trx, TrxR, NADPH) (Rattus norvegicus, UniProt O89049); experiment: In vitro Trx/TrxR study in PBS: reduction of ocrelizumab, Bioanalyzer assay; conditions: inhibitor 1 mM, PBS (FIGS. 6, 7)
T1 sequence (O89049 1-499): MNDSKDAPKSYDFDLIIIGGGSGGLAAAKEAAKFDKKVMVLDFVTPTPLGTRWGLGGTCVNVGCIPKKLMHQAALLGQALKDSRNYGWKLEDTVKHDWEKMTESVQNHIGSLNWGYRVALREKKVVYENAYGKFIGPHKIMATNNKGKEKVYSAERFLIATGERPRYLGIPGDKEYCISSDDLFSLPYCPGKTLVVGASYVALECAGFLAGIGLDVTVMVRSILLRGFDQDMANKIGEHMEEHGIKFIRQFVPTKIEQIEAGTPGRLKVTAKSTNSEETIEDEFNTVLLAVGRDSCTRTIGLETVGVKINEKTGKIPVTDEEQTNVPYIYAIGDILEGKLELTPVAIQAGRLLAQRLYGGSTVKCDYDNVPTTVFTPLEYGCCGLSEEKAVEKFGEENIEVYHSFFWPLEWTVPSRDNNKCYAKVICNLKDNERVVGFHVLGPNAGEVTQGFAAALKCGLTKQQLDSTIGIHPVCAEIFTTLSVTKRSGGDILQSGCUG
Procedure: (§1) A commercial TrxR (rat liver) solution (4 μM) was diluted with water to yield a 2.86 μM solution. Lyophilized Trx (human) was reconstituted with PBS (10 mM, pH 7.2) yielding a 500 μM solution. A solution of 20 mM NADPH and 10 mM ATG and ATM solutions were prepared in water.
In a black polypropylene 1.5 mL micro centrifuge tube, 437 μL PBS, 25 μL NADPH, 16 μL formulated ocrelizumab solution (30.2 mg/mL) and 5 μL Trx were gently mixed. The reaction was initiated by the addition of 17.5 μL TrxR. The reaction was incubated at room temperature for 24 hours. Aliquots of 20 μL were taken at each sampling time-point and stored at −70° C. until analyzed by the Bioanalyzer assay (see below).

[6] = target: T1, thioredoxin system (Trx, TrxR, NADPH); experiment: In vitro Trx/TrxR study in histidine sulfate buffer: reduction of ocrelizumab, Bioanalyzer assay; conditions: for minimum inhibitory concentration as multiple of TrxR concentration: typical
Procedure: as §1
In a black polypropylene 1.5 mL micro centrifuge tube, 437 μL reaction buffer (10 mM histidine, 10 mM Na2SO4, 137 mM NaCl, 2.5 mM KCl, pH 7.0), 25 μL NADPH, 16 μL formulated ocrelizumab solution (30.2 mg/mL) and 5 μL Trx were gently mixed. The reaction was initiated by the addition of 17.5 μL TrxR. The reaction was incubated at room temperature for 24 hours. Aliquots of 20 μL were taken at each sampling time-point and stored at −70° C. until analyzed by the Bioanalyzer assay.

[7] = test system: ocrelizumab reduction in HCCF; experiment: Dialysis experiment: ocrelizumab in dialysis bag (MWCO 7000) incubated in HCCF; conditions: ocrelizumab outside the bag in the HCCF (FIG. 2)
Procedure: A dialysis experiment was carried out in order to determine whether the components causing reduction of ocrelizumab were small molecules or macromolecules (i.e. enzymes). A sample of 3 mL of purified and formulated ocrelizumab (30.2 mg/mL) was dialyzed against 1 L of phosphate buffered saline (PBS, 10 mM pH 7.2) for 24 hours and the PBS was changed after 8 hours. The concentration of the ocrelizumab sample was then adjusted to 1 mg/mL using the absorbance at 280 nm. Aliquots were stored at −70° C. prior to use. Dialysis tubing was hydrated overnight in a 0.05% azide solution and rinsed with sterile water prior to use. The HCCF obtained from homogenization of CCF from a 3-L fermentor was thawed and filtered through a 0.22 μm Millipak filter using a peristaltic pump. Six short mini-tanks were filled with 30 mL of HCCF each. To each mini-tank, 500 μL of ocrelizumab sample in sealed dialysis tubing was added.
A dialysis experiment was designed and carried out to determine if the reduction of ocrelizumab was caused by small reducing molecules or macromolecules (e.g., enzymes). In this dialysis experiment, purified intact ocrelizumab was placed in a dialysis bag with a molecular weight cut off (MWCO) of 7000 and incubated the dialysis bag in HCCF containing ocrelizumab in a stainless steel mini-tank.

[8] = test system: ocrelizumab disulfide bond reduction in HCCF; experiment: Air sparging of HCCF: percentage of intact antibody in protein A elution pools
Procedure: To evaluate air sparging of the HCCF generated from homogenized CCF to prevent antibody disulfide reduction, 3-L glass or 15-L stainless steel vessels were utilized.
Approximately 1-5 L of HCCF was 0.22 μm sterile filtered into each sterilized vessel. Experimental conditions were maintained at 18-22° C. and 50 (15-L fermentor) or 275 rpm (3-L fermentor) agitation either with or without pH control by the addition of carbon dioxide. Solutions were either sparged with air to increase the dissolved oxygen level to air saturation or with nitrogen (control) to remove any dissolved oxygen in solution. Gas flow to each vessel was variable dependent upon whether a constant aeration rate was used or a minimum level of dissolved oxygen was maintained. At pre-determined time points, 25-50 mL samples were removed from both vessels and purified over a lab scale protein A affinity resin prior to analysis.
The antibody concentration in the purified protein A pool was measured using UV spectrometry at 280 nm. The purified protein A elution pools were analyzed by the Bioanalyzer assay to quantitate the percentage of intact antibody at 150 kDa molecular weight.
One HCCF mixture generated from homogenized CCF was stored and held in two separate L stainless steel fermentors. One vessel was sparged with air while the other vessel was sparged with nitrogen gas. The ocrelizumab antibody was purified immediately (t=0 hr) from the initial mixture using protein A chromatography. At selected time points, 50 mL samples were removed from each vessel and the antibody was purified using protein A chromatography. Purified protein A elution pools were then analyzed by the Bioanalyzer assay to quantitate the percentage of intact antibody at 150 kDa.

[9] = inhibitor 1 mM, HCCF from homogenized CCF of a 3-L fermentor (FIGS. 11, 12)
[10] = inhibitor 2.6 mM (FIGS. 38, 39)
[11] = added pre-lysis, antibody 2H7 (Variant A)

G6PD, sequence (P11413 whole entry): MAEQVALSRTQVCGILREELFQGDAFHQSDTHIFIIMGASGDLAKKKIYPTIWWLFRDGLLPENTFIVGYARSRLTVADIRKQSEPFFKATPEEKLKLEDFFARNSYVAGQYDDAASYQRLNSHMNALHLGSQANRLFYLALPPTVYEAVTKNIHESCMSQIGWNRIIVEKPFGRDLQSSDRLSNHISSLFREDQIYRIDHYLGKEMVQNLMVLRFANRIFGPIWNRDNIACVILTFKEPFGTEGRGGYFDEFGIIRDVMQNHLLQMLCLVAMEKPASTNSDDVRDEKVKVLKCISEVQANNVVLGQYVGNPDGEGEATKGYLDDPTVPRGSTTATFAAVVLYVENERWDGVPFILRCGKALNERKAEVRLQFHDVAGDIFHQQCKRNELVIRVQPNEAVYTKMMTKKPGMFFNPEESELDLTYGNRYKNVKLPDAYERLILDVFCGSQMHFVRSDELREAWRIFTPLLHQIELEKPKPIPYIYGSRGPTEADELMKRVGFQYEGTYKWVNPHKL

Molecule: O=S(=O)([O-])[O-].[Cu+2] [CuSO4, cupric sulfate]
- intact (150 kDa) antibody remaining in protein A elution pools [1]: ~100%

Molecule: C[C@]12CC[C@H](O)CC1=CC[C@@H]1[C@@H]2CC[C@]2(C)C(=O)CC[C@@H]12 [DHEA, dehydroepiandrosterone]
- G6PD inhibition (G6PD): effectively blocks G6PD activity
- inhibition of ocrelizumab reduction [2]: does not inhibit the reduction
- inhibition of antibody reduction in HCCF ([3]; DHEA added to HCCF, concentration not given): prevents antibody reduction

Molecule: O=C(O)CN(CCN(CC(=O)O)CC(=O)O)CC(=O)O [EDTA, ethylenediaminetetraacetic acid]
- intact (150 kDa) antibody remaining in protein A elution pools [1]: ~100%
- minimum effective concentration ([4]; antibody 2H7 (Variant A)): about 10 mM
- inhibition of ocrelizumab reduction in HCCF ([3]; 20 mM EDTA with 5 mM G6P, beta run HCCF that had fully lost reducing activity (FIG. 18)): unable to prevent the reduction
- inhibition of ocrelizumab reduction in HCCF ([3]; 20 mM EDTA, HCCF from 12,000 L manufacturing run (alpha run) (FIG. 17)): completely inhibited

Molecule: NC(=O)C1=CN([C@@H]2O[C@H](COP(=O)(O)OP(=O)(O)OC[C@H]3O[C@@H](n4cnc5c(N)ncnc54)[C@H](OP(=O)(O)O)[C@@H]3O)[C@@H](O)[C@H]2O)C=CC1 [NADPH, α-nicotinamide adenine dinucleotide phosphate]
- restoration of lost reduction activity in HCCF ([3]; 5 mM NADPH, beta run HCCF after several freeze/thaw cycles (FIG. 14)): the reduction event returned

Molecule: O=C[C@H](O)[C@@H](O)[C@H](O)[C@H](O)COP(=O)(O)O [Variant G6P, glucose-6-phosphate]
- restoration of lost reduction activity in HCCF ([3]; 10 mM G6P, repeatedly freeze-thawed beta run HCCF (FIG. 15)): reactivated the Trx system

Molecule: OC[C@H]1O[C@H]([S-])[C@H](O)[C@@H](O)[C@@H]1O.[Au+] [aurothioglucose]
- inhibition of ocrelizumab reduction by Trx system [5]: effectively inhibited the ocrelizumab reduction
- inhibition of ocrelizumab reduction by Trx system ([6]; inhibitor 0.2 μM (2:1 ATG:TrxR), after 24 hours (FIG. 28)): cannot inhibit ocrelizumab reduction
- inhibition of ocrelizumab reduction by Trx system ([6]; inhibitor 0.4 μM (4:1 ATG:TrxR) (FIG. 27)): effectively inhibits the reduction of ocrelizumab
- inhibition of ocrelizumab reduction by Trx system ([6]; inhibitor 0.6 μM (6:1 ATG:TrxR) (FIG. 26)): effectively inhibits the reduction of ocrelizumab
- inhibition of ocrelizumab reduction by Trx system ([6]; inhibitor 1 mM (FIG. 25)): effectively inhibits the reduction of ocrelizumab
- minimum inhibitory concentration as multiple of TrxR concentration [6]: around 4 × TrxR concentration
- inhibition of ocrelizumab reduction in HCCF [3, 9]: completely inhibited

Molecule: O=C(O)CC([S-])C(=O)O.[Au+] (stereo not drawn) [aurothiomalate]
- inhibition of ocrelizumab reduction by Trx system [5]: effectively inhibited the ocrelizumab reduction
- inhibition of ocrelizumab reduction by Trx system ([6]; inhibitor 0.01 mM (FIG. 30)): effectively inhibits the reduction of ocrelizumab
- inhibition of ocrelizumab reduction by Trx system ([6]; inhibitor 0.1 mM (FIG. 29)): effectively inhibits the reduction of ocrelizumab
- minimum inhibitory concentration as multiple of TrxR concentration [6]: around 4 × TrxR concentration
- inhibition of ocrelizumab reduction in HCCF [3, 9]: completely inhibited

Molecule: NCCSSCCN [cystamine]
- inhibition of ocrelizumab reduction by Trx system ([6]; inhibitor 26.6 μM (1:1 cystamine:2H7 disulfide), after 24 hours (FIG. 37)): insufficient to inhibit the reduction of ocrelizumab
- inhibition of ocrelizumab reduction by Trx system ([6]; inhibitor 133 μM (5:1 cystamine:2H7 disulfide), after 24 hours (FIG. 36)): insufficient to inhibit the reduction of ocrelizumab
- inhibition of ocrelizumab reduction by Trx system ([6]; inhibitor 266 μM (10:1 cystamine:2H7 disulfide) (FIG. 35)): effectively inhibits thioredoxin-induced reduction of ocrelizumab
- inhibition of ocrelizumab reduction by Trx system ([6]; inhibitor 532 μM (20:1 cystamine:2H7 disulfide) (FIG. 34)): effectively inhibits thioredoxin-induced reduction of ocrelizumab
- minimum effective inhibitory concentration as multiple of antibody concentration [4]: about 40 × of the antibody concentration (in μM)

Molecule: N[C@@H](CSSC[C@H](N)C(=O)O)C(=O)O [cystine]
- inhibition of ocrelizumab reduction by Trx system [6, 10]: effectively inhibits reduction of ocrelizumab
- minimum effective concentration ([4]; added in the cell culture medium, 2H7 (Variant A)): about 5.2 mM
- minimum effective concentration ([4]; added in the cell culture medium, Apomab): ~6 mM
- minimum effective concentration ([4]; added in the cell culture medium, antibody Variant C): ~9 mM
- minimum effective concentration ([4]; added pre-lysis, Apomab): about 1 mM
- minimum effective concentration [4, 11]: about 1.3 mM
- minimum effective concentration ([4]; added pre-lysis, antibody Variant C): about 4.5 mM
- minimum effective inhibitory concentration as multiple of antibody concentration [4]: about 40 × of the antibody concentration (in μM)

Molecule: ocrelizumab: humanized anti-CD20 antibody 2H7 Variant A: VL SEQ ID NO:1, VH SEQ ID NO:2, L chain SEQ ID NO:6, H chain SEQ ID NO:7
- intact antibody (150 kDa) ([1]; control mixture without any addition, 20 hr): not detected
- reduction of ocrelizumab [7]: significantly reduced
- intact (150 kDa) antibody remaining in protein A elution pools ([8]; HCCF sparged with air, FIG. 20 legend): ~100%
- ocrelizumab reduction ([8]; control HCCF after 5 hours of sparging with nitrogen, FIG. 20 legend): almost completely reduced
- percentage of intact antibody at 150 kDa ([8]; initial solution, t=0 hr): approximately 85%
- percentage of intact antibody at 150 kDa ([8]; sparged with nitrogen gas, 2 hr): 28%
- percentage of intact antibody at 150 kDa ([8]; sparged with nitrogen gas, 6 hr): 5%
- ocrelizumab reduction in HCCF, no addition ([3]; HCCF from 12,000 L manufacturing run, ambient temperature, more than 19 hours (FIG. 16)): reduced
- ocrelizumab reduction in HCCF, no addition ([3]; HCCF from homogenized CCF of a 3-L fermentor (FIG. 10)): readily reduced
- ocrelizumab reduction in HCCF, no addition ([3]; beta run HCCF after several freeze/thaw cycles (FIG. 13)): no ocrelizumab reduction was observed

Molecule: oxidized glutathione [GSSG]
- inhibition of ocrelizumab reduction by Trx system [6, 10]: effectively inhibits reduction of ocrelizumab
- minimum effective concentration [4, 11]: about 1.3 mM
- minimum effective inhibitory concentration as multiple of antibody concentration [4]: about 40 × of the antibody concentration (in μM)
